The values below come from ChEMBL document CHEMBL5050832, “Compounds and methods for regulating, limiting, or inhibiting avil expression” (2020).

The structures appear in SMILES notation. Active and inactive are the calls of the source. The calls are words filed in the database; no cut-off is given here.

The subject of test [1] is RD. Kind of test: Antiproliferative activity against human RD cells at 20 uM assessed as decrease in cell number measured by crystal violet staining method relative to control. Type of test: functional, cell-based.
The species named for another test is Homo sapiens. The test is described as follows: Binding affinity towards recombinant AVIL (unknown origin) measured by thermal shift assay.
For test [2], the system named is SJRH30. Kind of test: Antiproliferative activity against human Rh30 cells at 20 uM assessed as decrease in cell number measured by crystal violet staining method relative to control. Type of test: functional, cell-based.
The test system of test [3] is SJRH30. The test is described as follows: Antiproliferative activity against human Rh30 cells. Format: functional, cell-based.
Test [4] has as its system Mesenchymal stem cells. Kind of test: Antiproliferative activity against human mesenchymal stem cells at 20 uM assessed as decrease in cell number measured by crystal violet staining method relative to control. Type of test: functional, cell-based.
In test [5] the test system is RD. Kind of test: Antiproliferative activity against human RD cells. Type of test: functional, cell-based.
The subject of the next test is U-87MG ATCC. Kind of test: Downregulation of LIN28B expression in human U87 cells measured by qRT-PCR assay. Type of test: functional, cell-based. Background: Real-time PCR tracks product formation cycle by cycle.
Test [6] has as its system Mesenchymal stem cells. The test is described as follows: Antiproliferative activity against human mesenchymal stem cells. Format: functional, cell-based.
In a further test the test system is U-87 MG. Kind of test: Antiproliferative activity against human U87 cells. Type of test: functional, cell-based, U-87MG ATCC.
Test [7] can be described thus: Antiproliferative activity against human astrocytes. Type of test: functional, cell-based. The following applies: Astrocyte.

On to `Nc1nccc(N2CCCC(CO)(CCCc3ccccc3)C2)n1` (centres undefined), for which the outcome with RD [1], in the test filed under Homo sapiens, in the test on SJRH30 [2], in the test with SJRH30 [3], in the test on RD [5] and with U-87MG ATCC was Active. Moreover, the result with Mesenchymal stem cells [4] and with Mesenchymal stem cells [6] was inactive.

As to `CN(Cc1ccc(Oc2ccccc2)cc1)C(=O)[C@@H]1C[C@@H](O)CN1`, the outcome in the test filed under Homo sapiens and in the test with U-87MG ATCC was Active.

As to `c1ccc(CCC2CCN(CC3[C@H]4CNC[C@@H]34)CC2)cc1` (some centres undefined), the result in the test filed under Homo sapiens and in the test with U-87MG ATCC was Active.

As for `Cc1cc(N2CCCC(CO)(CCCc3ccccc3)C2)nc(N)n1` (centres undefined), the IC50 in the test on U-87 MG worked out at 8 µM; in test [7], 5 µM.

What is called IC50 is the concentration that gives 50% inhibition. Read a low IC50 as greater potency.
